Data: patent US11066414B2, “Cot modulators and methods of use thereof” (Gilead Sciences, Inc., priority 2015, dated 2021)
pEC50, pIC50: −log10 of the molar value. Read-outs that look alike come from different tables or passages of the source.

How the values were obtained:
TNFα = experiment: Cot Monocyte TNFα Cell Based Assay
Human Cot = Human Cot (Homo sapiens (Human), UniProt P41279); experiment: High Throughput Cot Biochemical Assay
[1] = Homo sapiens, Monocyte, read-out: EC50 TNF, LPS-stimulated human monocytes, TNFα
[2] = IC50 HTRF, Cot HTRF (TR-FRET) biochemical assay
[3] = Homo sapiens, Monocyte, read-out: EC50 TNF, LPS-stimulated human monocytes, TNFα TR-FRET
[4] = IC50 HTRF, Cot HTRF (TR-FRET KinEASE) biochemical assay, 400 μM ATP
[5] = read-out: EC50 TNF, LPS-stimulated human monocytes, TNFα
[6] = read-out: IC50 HTRF, Cot HTRF (TR-FRET) biochemical assay

Human Cot, sequence (P41279 30-397): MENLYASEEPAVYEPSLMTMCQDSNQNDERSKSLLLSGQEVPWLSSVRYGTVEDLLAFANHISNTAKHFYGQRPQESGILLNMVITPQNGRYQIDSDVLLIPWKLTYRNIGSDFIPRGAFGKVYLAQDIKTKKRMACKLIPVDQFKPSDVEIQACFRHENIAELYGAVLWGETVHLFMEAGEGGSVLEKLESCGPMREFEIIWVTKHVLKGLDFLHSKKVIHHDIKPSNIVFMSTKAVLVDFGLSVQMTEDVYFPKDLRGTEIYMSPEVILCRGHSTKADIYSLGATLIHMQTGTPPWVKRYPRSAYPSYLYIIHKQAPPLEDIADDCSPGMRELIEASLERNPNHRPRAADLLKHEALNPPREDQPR

Compound | pEC50 (TNFα; [1]) | pIC50 (Human Cot; [2]) | also measured
CC(C)(C)N1CCC(n2cc([C@@H](Nc3cc(Cl)c4ncc(C#N)c(Nc5ccc(F)c(Cl)c5)c4c3)c3cccc4c3CNC4)nn2)CC1 [Example 59, (S)-6-(((1-(1-(tert-butyl)piperidin-4-yl)-1H-1,2,3-triazol-4-yl)(isoindolin-4-yl)methyl)amino)-8-chloro-4-((3-chloro-4-fluorophenyl)amino)quinoline-3-carbonitrile] | 6.05 | 8.70 | 
CCc1ncccc1[C@H](Nc1cc(C#N)c2ncc(C#N)c(NCC(C)(C)C)c2c1)c1cn(C2(C(F)(F)F)CC2)nn1 [Example 602, (S)-6-(((2-ethylpyridin-3-yl)(1-(1-(trifluoro-methyl)cyclopropyl)-1H-1,2,3-triazol-4-yl)methyl)amino)-4-(neopentylamino)-quinoline-3,8-dicarbonitrile] | 7.16 | 8.52 | 
CCN1CCC(n2cc([C@@H](Nc3cc(Cl)c4ncc(C#N)c(Nc5ccc(F)c(Cl)c5)c4c3)c3cncs3)nn2)CC1 [Example 378, (R)-8-chloro-4-((3-chloro-4-fluoro-phenyl)amino)-6-(((1-(1-ethylpiperidin-4-yl)-1H-1,2,3-triazol-4-yl)(thiazol-5-yl)methyl)amino)quinoline-3-carbonitrile] | 6.77 | 8.70 | 
CC(C)(C)CNc1c(C#N)cnc2c(C#N)cc(N[C@H](c3cn(C4(C(N)=O)CC4)nn3)c3cccc4ncccc34)cc12 [Example 575, (S)-1-(4-(((3,8-dicyano-4-(neopentylamino)-quinolin-6-yl)amino)(quinolin-5-yl)methyl)-1H-1,2,3-triazol-1-yl)cyclopropane-1-carboxamide] | 6.01 | 9.00 | 
CC(C)(C)CNc1c(C#N)cnc2c(C#N)cc(N[C@H](c3cn(C4(C#N)CC4)nn3)c3cccc4cnccc34)cc12 [Example 580, (S)-6-(((1-(1-cyanocyclopropyl)-1H-1,2,3-triazol-4-yl)(isoquinolin-5-yl)methyl)amino)-4-(neopentylamino)-quinoline-3,8-dicarbonitrile] | 7.08 | 8.70 | 
COC[C@H](C)n1cc([C@@H](Nc2cc(Cl)c3ncc(C#N)c(NCC(C)(C)C)c3c2)c2cccc3c(=O)n(C)ccc23)nn1 [Example 802, 8-chloro-6-(((S)-(1-((S)-1-methoxypropan-2-yl)-1H-1,2,3-triazol-4-yl)(2-methyl-1-oxo-1,2-dihydroisoquinolin-5-yl)methyl)amino)-4-(neopentylamino)quinoline-3-carbonitrile] |  |  | pEC50 (TNFα; [3]): 7.44; pIC50 (Human Cot; [4]): 8.40
Cc1nc(F)ccc1[C@H](Nc1cc(Cl)c2ncc(C#N)c(NCC(C)(C)C)c2c1)c1cn(CC2(C(F)F)CC2)nn1 [Example 752, (S)-8-chloro-6-(((1-((1-(difluoromethyl)cyclopropyl)-methyl)-1H-1,2,3-triazol-4-yl)(6-fluoro-2-methylpyridin-3-yl)methyl)amino)-4-(neopentylamino)quinoline-3-carbonitrile] | 7.24 | 8.30 | 
CC(C)(C)CNc1c(C#N)cnc2c(C#N)cc(N[C@H](c3cn(C4(C5CC5)CC4)nn3)c3cccc4cnccc34)cc12 [Example 703, (S)-6-(((1-([1,1′-bi(cyclopropan)]-1-yl)-1H-1,2,3-triazol-4-yl)(isoquinolin-5-yl)methyl)amino)-4-(neopentylamino)quinoline-3,8-dicarbonitrile] | 7.66 | 8.70 | 
CC(C)(C)CNc1c(C#N)cnc2c(Cl)cc(N[C@@H](c3cccnc3)c3cn(C4(C(F)F)CC4)nn3)cc12 [Example 506, (S)-8-chloro-6-(((1-(1-(difluoromethyl)-cyclopropyl)-1H-1,2,3-triazol-4-yl)(pyridin-3-yl)methyl)amino)-4-(neopentylamino)quinoline-3-carbonitrile] | 6.28 | 8.10 | 
[2H][C@](Nc1cc(Cl)c2ncc(C#N)c(NCC(C)(C)C)c2c1)(c1ccc(F)nc1)c1cn(CC(=O)O)nn1 [Example 85, (S)-2-(4-(((8-chloro-3-cyano-4-(neopentylamino)quinolin-6-yl)amino)(6-fluoropyridin-3-yl)methyl-d)-1H-1,2,3-triazol-1-yl)acetic acid] | < 6.00 | 8.40 | 
CCc1nc(F)ccc1[C@H](Nc1cc(Cl)c2ncc(C#N)c(NCC(C)(C)C)c2c1)c1cn(C2(C(F)(F)F)CC2)nn1 [Example 593, (S)-8-chloro-6-(((2-ethyl-6-fluoropyridin-3-yl)(1-(1-(trifluoromethyl)cyclopropyl)-1H-1,2,3-triazol-4-yl)methyl)amino)-4-(neopentylamino)quinoline-3-carbonitrile] | 6.53 | 8.10 | 
Cc1nc(F)ccc1[C@H](Nc1cc(Cl)c2ncc(C#N)c(NCC3(C(F)F)CC3)c2c1)c1cn(C2(C(F)(F)F)CC2)nn1 [Example 636, (S)-8-chloro-4-(((1-(difluoromethyl)cyclopropyl)-methyl)amino)-6-(((6-fluoro-2-methylpyridin-3-yl)(1-(1-(trifluoromethyl)cyclopropyl)-1H-1,2,3-triazol-4-yl)methyl)amino)quinoline-3-carbonitrile] | 6.14 | 7.16 | 
[2H][C@@](Nc1cc(Cl)c2ncc(C#N)c(NCC(C)(C)C)c2c1)(c1cn(C2CC2)nn1)c1cccnc1N(C)C [Example 650, (S)-8-chloro-6-(((1-cyclopropyl-1H-1,2,3-triazol-4-yl)(2-(dimethylamino)pyridin-3-yl)methyl-d)amino)-4-(neopentylamino)quinoline-3-carbonitrile] | 6.00 | 6.75 | 
Cn1ncc2c([C@H](Nc3cc(C#N)c4ncc(C#N)c(NCC(C)(C)C)c4c3)c3cn(Cc4c(F)cccc4F)nn3)cccc21 [Example 656] |  |  | pEC50 (TNFα; [5]): 7.07; pIC50 (Human Cot; [6]): 8.40
N#Cc1cnc2c(Cl)cc(N[C@@H](c3cccnc3)c3cn(C4COC4)nn3)cc2c1Nc1cccc(Cl)c1 [Example 196, (S)-8-chloro-4-((3-chlorophenyl)amino)-6-(((1-(oxetan-3-yl)-1H-1,2,3-triazol-4-yl)(pyridin-3-yl)methyl)amino)quinoline-3-carbonitrile] | 6.18 | 8.22 | 
Cn1nnc2cccc([C@H](Nc3cc(Cl)c4ncc(C#N)c(NCC(C)(C)C)c4c3)c3cn(C4(C(F)(F)F)CC4)nn3)c21 [Example 522, (S)-8-chloro-6-(((1-methyl-1H-benzo[d] [1,2,3]triazol-7-yl)(1-(1-(trifluoromethyl)-cyclopropyl)-1H-1,2,3-triazol-4-yl)methyl)amino)-4-(neopentylamino)-quinoline-3-carbonitrile] | 7.28 | 8.30 | 
Cc1nc(F)ccc1[C@H](Nc1cc(Cl)c2ncc(C#N)c(NCC(C)(C)C)c2c1)c1cn(C2(C(=O)N(C)C)CC2)nn1 [Example 553, (S)-1-(4-(((8-chloro-3-cyano-4-(neopentyl-amino)quinolin-6-yl)amino)(6-fluoro-2-methylpyridin-3-yl)methyl)-1H-1,2,3-triazol-1-yl)-N,N-dimethylcyclopropane-1-carboxamide] | 7.19 | 8.52 | 
N#Cc1cnc2c(Cl)cc(N[C@H](c3c[nH]nn3)c3cccnc3F)cc2c1Nc1cnc(F)c(F)c1 [Example 151, (S)-8-chloro-4-((5,6-difluoropyridin-3-yl)amino)-6-(((2-fluoropyridin-3-yl)(1H-1,2,3-triazol-4-yl)methyl)amino)quinoline-3-carbonitrile] | 5.88 | 8.10 | 
Cc1nc(F)ccc1[C@H](Nc1cc(C#N)c2ncc(C#N)c(NCC(C)(C)C)c2c1)c1cn(C(C)(C)C2CC2)nn1 [Example 850, (S)-6-(((1-{2-cyclopropylpropan-2-yl)-1H-1,2,3-triazol-4-yl)(6-fluoro-2-methylpyridin-3-yl)methyl)amino)-4-(neopentylamino)quinoline-3,8-dicarbonitrile] |  |  | pEC50 (TNFα; [3]): 7.19; pIC50 (Human Cot; [4]): 8.22
Cc1nc(F)ccc1[C@H](Nc1cc(C#N)c2ncc(C#N)c(NCC(C)(C)C(F)(F)F)c2c1)c1cn(C2(C(F)F)CC2)nn1 [Example 841] |  |  | pEC50 (TNFα; read-out: EC50 TNF, LPS-stimulated human monocytes, TNFα TR-FRET): 7.39; pIC50 (Human Cot; read-out: IC50 HTRF, Cot HTRF (TR-FRET KinEASE) biochemical assay, 400 μM ATP): 8.70
Cc1ncccc1[C@H](Nc1cc(Cl)c2ncc(C#N)c(Nc3cccc(Cl)c3F)c2c1)c1c[nH]nn1 [Example 248, (S)-8-chloro-4-((3-chloro-2-fluorophenyl)amino)-6-(((2-methylpyridin-3-yl)(1H-1,2,3-triazol-4-yl)methyl)amino)-quinoline-3-carbonitrile] | 6.40 | 8.40 | 
CC(C)(C)CNc1c(C#N)cnc2c(C#N)cc(N[C@H](c3cn(C4(C(F)F)CC4)nn3)c3ccc(F)c4cnccc34)cc12 [Example 672] |  |  | pEC50 (TNFα; [5]): 7.66; pIC50 (Human Cot; [6]): 8.70
CC(C)(C)CNc1c(C#N)cnc2c(Cl)cc(N[C@H](c3cn(C4(C(F)(F)F)CC4)nn3)c3cccc4ccncc34)cc12 [Example 533, (S)-8-chloro-6-((isoquinolin-8-yl(1-(1-(trifluoromethyl)cyclopropyl)-1H-1,2,3-triazol-4-yl)methyl)amino)-4-(neopentyl-amino)quinoline-3-carbonitrile] | 7.02 | 8.52 | 
Cc1scnc1[C@H](Nc1cc(C#N)c2ncc(C#N)c(NCC(C)(C)C)c2c1)c1cn(C2(C(F)F)CC2)nn1 [Example 641] |  |  | pEC50 (TNFα; [5]): 6.09; pIC50 (Human Cot; [6]): 7.26
Cn1cnc2cccc([C@H](Nc3cc(C#N)c4ncc(C#N)c(NCC(C)(C)C)c4c3)c3cn(C4(C(F)(F)F)CC4)nn3)c21 [Example 484, (S)-6-(((1-methyl-1H-benzo[d]imidazol-7-yl)(1-(1-(trifluoromethyl)cyclopropyl)-1H-1,2,3-triazol-4-yl)methyl)amino)-4-(neopentylamino)quinoline-3,8-dicarbonitrile] | 7.14 | 8.52 | 
